From PMC8587863, “Discovery of Novel Delta Opioid Receptor (DOR) Inverse Agonist and Irreversible (Non-Competitive) Antagonists” (Molecules, 2021)

How the values were obtained:
[1] = molecular target: T1, human DOR (delta opioid receptor) (Homo sapiens, UniProt P41143); assay: […]-GTPgammaS coupling, membranes; assay type: biochemical; details: antagonist mode against SNC80 curve; 30 °C, 1 h, 40 uM GDP; proposed covalent / irreversible
T1 construct: gene OPRD1; full-length receptor expressed in CHO-K1 cells

[2] = molecular target: T1, human DOR (delta opioid receptor); assay: cAMP accumulation, live DOR-CHO cells; assay type: cell-based
[3] = molecular target: T2, human kappa opioid receptor (KOR) (Homo sapiens, UniProt P41145); assay: competition radioligand binding, 3H-diprenorphine, membranes
T2 construct: gene OPRK1; full-length receptor expressed in CHO cells; membranes

[4] = molecular target: T3, human mu opioid receptor (MOR) (Homo sapiens, UniProt P35372); assay: as above; details: room temperature, 1 h, one-site fit; unreliable
T3 construct: gene OPRM1; full-length receptor expressed in CHO cells; membranes

[5] = molecular target: T1, human DOR (delta opioid receptor); assay: as above

SMILES | % SNC80 efficacy (EMAX) at 1 nM [1] | EC50 [2] | Ki [3] | KI [4] | Ki [5]
Oc1ccc2c3c1O[C@H]1c4[nH]c5ccc(/C=C/c6ccccn6)cc5c4C[C@@]4(O)[C@@H](C2)N(CC2CC2)CC[C@]314 [SRI-9342, (4bS,8R,8aS,14bR)-7-(Cyclopropylmethyl)-11-((E)-2-(pyridin-2-yl)vinyl)-5,6,7,8,14,14b-hexahydro-4,8-methanobenzofuro [2,3-a]pyrido[4,3-b]carbazole-1,8a(9H)-diol] | 84% |  |  |  | 
O=C(C1CC1)N1CC[C@]23c4c5ccc(O)c4O[C@H]2c2ncc(-c4ccc(Cl)cc4)cc2C[C@@]3(O)[C@H]1C5 [SRI-45128, ((4bS,8R,8aS,13bR)-11-(4-Chlorophenyl)-1,8a-dihydroxy-5,6,8,8a,9,13b-hexahydro-7H-4,8-methanobenzofuro[3,2-h]pyrido[3,4-g]quinolin-7-yl)(cyclopropyl)methanone] |  | 770 nM | 2500 ± 510 nM | > 3,333 nM | 24 ± 2 nM
O=C(C1CC1)N1CC[C@]23c4c5ccc(O)c4O[C@H]2c2[nH]c4ccccc4c2C[C@@]3(O)[C@H]1C5 [SYK-623, Cyclopropyl((4bS,8R,8aS,14bR)-1,8a-dihydroxy-5,6,8a,9,14,14b-hexahydro-4,8-methanobenzofuro[2,3−a]pyrido [4,3−b]carbazol-7(8H)-yl)methanone] |  | 265 nM | 2000 ± 290 nM | > 3,333 nM | 11 ± 1 nM
